Legend:
E. coli NCTC 10418 = test: Kill kinetics and regrowth of E. coli after gentamicin bolus pre-exposure followed by maintained cephazolin; format: cell-based, Escherichia coli; conditions: then cephazolin 0 mg/L
Excerpt: In comparative experiments described in the examples herein, a reference strain of Escherichi coli (E. coli NCTC 10418) was exposed to constant concentrations of cephazolin in the culture medium (see FIGS. 1A and IIA).
The experimental work described herein involved testing bacterial response while changing aminoglycoside concentrations with time in the test tube, and mimics closely measurements made in man under clinical conditions (Bastone E B, Li S C, Ioannides-Demos L L, Spicer J., McLean A J, “Kill kinetics and regrowth patterns of E. coli exposed to gentamicin concentration-time profiles simulating in vivo bolus or infusion dosing”, Antimicrob Agents Chemother. 37:914-917, 1993).
The form of this profile is governed in vivo by distribution into tissue from the central circulation. In in vitro experiments, gentamicin was removed (T=0 time) by centrifugation and washing with antibiotic-free medium. The incubation was reconstituted with media containing 0 mg/l, 1 mg/l or 2 mg/l cephazolin (see FIG. IA).
In FIG. IB, it can be seen that the pattern of growth of control organisms (not exposed to antibiotic) is designated by the dotted line ( - - - ), while the growth patterns of test organisms are represented by the solid lines with symbols indicating each type of treatment or test (FIG. IB).

[1] = tested on: blood culture isolate of cMRSA; test: MIC and MBC for the cMRSA isolate; format: cell-based, Staphylococcus aureus; conditions: mecA positive
Procedure: The student test was used for statistical analysis with a significant level of 0.05, it was performed using the Sigma Stat 32 program (SPSS Inc 1992-1997).

[2] = tested on: blood culture isolate of cMRSA; test: Kill kinetics and regrowth patterns of cMRSA exposed to gentamicin profiles and constant beta-lactam; format: cell-based, Staphylococcus aureus
Procedure: FIGS. 5a and 5b Kill kinetics and regrowth patterns of a clinical isolate of cMRSA.
The CMRSA isolate was cultured in the presence of gentamicin (Delta West, Bentleigh, Australia). An overnight culture of cMRSA in brain heart infusion broth (BHIB) (Oxoid, Bainstoke, England) was diluted to 10^7 CFU/ml in 0.1% peptone water (Oxoid, Bainstoke, England). A 1 ml sample of the 10^7 CFU/ml culture was added to the experimental culture broth, resulting in an initial density of 10^6 CFU/ml. In vitro concentration-time modeling of clinical plasma gentamicin concentration-time profiles assumed linear extrapolation of in vivo data as reported previously.^18 (Bastone et al Antimicrobial Agents and Chemotherapy 37(4): 914-917, 1993). […] Other profiles were constructed by linear extrapolation of these profiles and included 7 and 16 mg/l bolus and infusion profiles. Colony counts were performed at times 0, 0.5, 2.5, 4.5, 6.5, 8.5, 10.5, 24.5 and 48.5 hours for bolus profiles and times 0, 1, 3, 5, 7, 9, 11, 25 and 49 hours for infusion profiles.
In the experiments involving cephazolin the concentration was maintained at 4 mg/l in the BHIB for the entire 48.5 hours. For the experiments involving flucloxacillin the concentration of flucloxacillin was maintained at 2 mg/l for 48.5 hours. Colony counts were performed at times 0, 0,5, 2.5, 4.5, 6.5, 8.5, 10.5, 24.5 and 48.5 hours. […] These included cMRSA in a drug free broth, cMRSA exposed to a bolus profile of gentamicin with a target Cpeak 30 of 6 mg/l only, cMRSA exposed to […] of flucloxacillin only.
All experiments involved six replicates. Gentamicin concentrations were measured at times 0, 0.16, 0.33, 0.5, 2.5, 4.5, 6.5, 8.5, 10.5, 24.5 and 48.5 hours. Gentamicin assay concentrations were determined by fluorescence polarisation immunoassay (AxSYM, Abbot, Ill., U.S.A.) which has a threshold for detection of 0.3 mg/liter. […] (Gibaldi et al, pharmaceutics 2nd edn, 1982).
The blood culture cMRSA isolate was exposed to gentamicin in vitro simulating an in vivo bolus dosing regimen with varying 30 minute post dose concentrations of gentamicin. The same organism was then exposed to gentamicin in vitro simulating an in vivo bolus dosing regime with a 30 minute post dose concentration of 6 mg/l and constant concentration of 4 mg/l of cephazolin or 2 mg/l of flucloxacillin for 48 hours.

gentamicin
BACTERIAL COUNTS (E. coli NCTC 10418; 8 mg/L bolus gentamicin, 2 h): 1.32 ± 0.69 log10 cfu/mL | BACTERIAL COUNTS (E. coli NCTC 10418; 8 mg/L bolus gentamicin, 8 h): 4.91 ± 0.70 log10 cfu/mL | BACTERIAL COUNTS (E. coli NCTC 10418; 8 mg/L bolus gentamicin, 24 h): 8.88 ± 0.11 log10 cfu/mL | BACTERIAL COUNTS (E. coli NCTC 10418; 8 mg/L bolus gentamicin, −0.5 h): 5.87 ± 0.35 log10 cfu/mL | BACTERIAL COUNTS (E. coli NCTC 10418; 12 mg/L bolus gentamicin, 2 h): 0.69 ± 0.87 log10 cfu/mL | BACTERIAL COUNTS (E. coli NCTC 10418; 12 mg/L bolus gentamicin, 8 h): 4.54 ± 1.15 log10 cfu/mL | BACTERIAL COUNTS (E. coli NCTC 10418; 12 mg/L bolus gentamicin, 24 h): 8.80 ± 0.05 log10 cfu/mL | BACTERIAL COUNTS (E. coli NCTC 10418; 12 mg/L bolus gentamicin, −0.5 h): 6.10 ± 0.26 log10 cfu/mL | BACTERIAL COUNTS (E. coli NCTC 10418; 16 mg/L bolus gentamicin, 2 h): 0.48 ± 0.76 log10 cfu/mL | BACTERIAL COUNTS (E. coli NCTC 10418; 16 mg/L bolus gentamicin, 8 h): 3.85 ± 1.24 log10 cfu/mL | BACTERIAL COUNTS (E. coli NCTC 10418; 16 mg/L bolus gentamicin, 24 h): 8.79 ± 0.05 log10 cfu/mL | BACTERIAL COUNTS (E. coli NCTC 10418; 16 mg/L bolus gentamicin, −0.5 h): 5.85 ± 0.050 log10 cfu/mL | BACTERIAL COUNTS (E. coli NCTC 10418; 20 mg/L bolus gentamicin, 2 h): NGD | BACTERIAL COUNTS (E. coli NCTC 10418; 20 mg/L bolus gentamicin, 8 h): 3.15 ± 0.734 log10 cfu/mL | BACTERIAL COUNTS (E. coli NCTC 10418; 20 mg/L bolus gentamicin, 24 h): 8.81 ± 0.04 log10 cfu/mL | BACTERIAL COUNTS (E. coli NCTC 10418; 20 mg/L bolus gentamicin, −0.5 h): 5.89 ± 0.03 log10 cfu/mL | MBC [1]: 4 µg/mL | MIC [1]: 1 µg/mL | Outcome of exposure ([2]; each agent alone): complete kill or eradication was not achieved | Time at which regrowth phase began ([2]; gentamicin bolus and infusion profiles, target Cpeak30 7 mg/l): 24.5 h | Regrowth ([2]; gentamicin bolus and infusion profiles, target Cpeak30 16 mg/l): no regrowth | Time at which early bactericidal effect was evident ([2]; gentamicin only, bolus profile Cpeak30 6 mg/l): ≤ 0.5 h

— patent US6858589B2, “Methods of and compositions for potentiating the action of agents active on cell wall sites of the susceptible bacteria” (priority 1996, dated 2005)
